In the supplement of paper PMC11451515:

Test system: SEM cells
Experiment: cell viability relative to DMSO control; higher = less cytotoxic
Details: 48 h
Procedure, shortened: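 Viability is a per-plate percentage relative to DMSO wells, with cell-free wells as background. CellTiter-Glo One luminescence was read after 48 h at 37°C on 1536-well plates (5 μl) of NOMO1 or SEM (500 cells/well) or P12-Ichikawa (1000 cells/well) leukemia cells. The cells had been adapted for at least four passages in each medium and pin-dosed with library compounds in DMSO from 47 μM to 0.79 nM in 11 threefold steps.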

[1] = RPMI 5 mM glucose + 10% FBS, 0.000781 µM
[2] = RPMI 5 mM glucose + 10% FBS, 0.00234 µM
[3] = RPMI 5 mM glucose + 10% FBS, 0.00702 µM
[4] = RPMI 5 mM glucose + 10% FBS, 0.0211 µM
[5] = RPMI 5 mM glucose + 10% FBS, 0.0632 µM
[6] = RPMI 5 mM glucose + 10% FBS, 0.19 µM
[7] = RPMI 5 mM glucose + 10% FBS, 0.569 µM
[8] = RPMI 5 mM glucose + 10% FBS, 1.71 µM
[9] = RPMI 5 mM glucose + 10% FBS, 5.12 µM
[10] = RPMI 5 mM glucose + 10% FBS, 15.4 µM
[11] = RPMI 5 mM glucose + 10% FBS, 46.1 µM
[12] = HPLM + 10% dialyzed FBS, 0.000781 µM
[13] = HPLM + 10% dialyzed FBS, 0.00234 µM
[14] = HPLM + 10% dialyzed FBS, 0.00702 µM
[15] = HPLM + 10% dialyzed FBS, 0.0211 µM
[16] = HPLM + 10% dialyzed FBS, 0.0632 µM
[17] = HPLM + 10% dialyzed FBS, 0.19 µM
[18] = HPLM + 10% dialyzed FBS, 0.569 µM
[19] = HPLM + 10% dialyzed FBS, 1.71 µM
[20] = HPLM + 10% dialyzed FBS, 5.12 µM
[21] = HPLM + 10% dialyzed FBS, 15.4 µM
[22] = HPLM + 10% dialyzed FBS, 46.1 µM
[23] = RPMI 5 mM glucose + 10% dialyzed FBS, 0.000781 µM
[24] = RPMI 5 mM glucose + 10% dialyzed FBS, 0.00234 µM
[25] = RPMI 5 mM glucose + 10% dialyzed FBS, 0.00702 µM
[26] = RPMI 5 mM glucose + 10% dialyzed FBS, 0.0211 µM
[27] = RPMI 5 mM glucose + 10% dialyzed FBS, 0.0632 µM
[28] = RPMI 5 mM glucose + 10% dialyzed FBS, 0.19 µM
[29] = RPMI 5 mM glucose + 10% dialyzed FBS, 0.569 µM
[30] = RPMI 5 mM glucose + 10% dialyzed FBS, 1.71 µM
[31] = RPMI 5 mM glucose + 10% dialyzed FBS, 5.12 µM
[32] = RPMI 5 mM glucose + 10% dialyzed FBS, 15.4 µM
[33] = RPMI 5 mM glucose + 10% dialyzed FBS, 46.1 µM

| Structure (SMILES) | cell viability [1] | cell viability [2] | cell viability [3] | cell viability [4] | cell viability [5] | cell viability [6] | cell viability [7] | cell viability [8] | cell viability [9] | cell viability [10] | cell viability [11] | cell viability [12] | cell viability [13] | cell viability [14] | cell viability [15] | cell viability [16] | cell viability [17] | cell viability [18] | cell viability [19] | cell viability [20] | cell viability [21] | cell viability [22] | cell viability [23] | cell viability [24] | cell viability [25] | cell viability [26] | cell viability [27] | cell viability [28] | cell viability [29] | cell viability [30] | cell viability [31] | cell viability [32] | cell viability [33] |
| --- | --- | --- | --- | --- | --- | --- | --- | --- | --- | --- | --- | --- | --- | --- | --- | --- | --- | --- | --- | --- | --- | --- | --- | --- | --- | --- | --- | --- | --- | --- | --- | --- | --- |
| CN1C(=O)C(=C/2N(C(=O)N(C3CC3)C(=O)C2=C1/NC4=CC=C(I)C=C4F)C5=CC=CC(=C5)NC(C)=O)\C | 107% | 129% | 118% | 129% | 136% | 114% | 85.6% | 60.1% | 7.99% | 4.7% | 4.99% | – | – | – | – | – | – | – | – | – | – | – | – | – | – | – | – | – | – | – | – | – | – |
| CC(=O)[C@H]1CC[C@H]2[C@@H]3C/C=C4/C[C@@H](O)CC[C@]4(C)[C@H]3CC[C@]12C | 113% | 116% | 126% | 117% | 124% | 116% | 126% | 121% | 123% | 118% | 119% | 100% | 91.7% | 96.8% | 103% | 113% | 115% | 114% | 106% | 113% | 114% | 115% | – | – | – | – | – | – | – | – | – | – | – |
| CC[C@@H](C)[C@H](NC(=O)[C@H](CC1CCCCC1)NC(=O)c1ccno1)C(=O)N1CCC2(CCc3ccccc32)CC1 | 49.4% | 102% | 103% | 89.2% | 67.5% | 71.5% | 88% | 73.7% | 79.3% | 73.8% | 81.3% | 41.9% | 88.3% | 78.3% | 86% | 65.4% | 86.3% | 83.7% | 87.1% | 93.1% | 82.6% | 70.3% | 55.4% | 111% | 99.2% | 105% | 83.6% | 99.1% | 82.1% | 99.1% | 95.6% | 93.9% | 91.9% |
| NC/1=N/C(=O)C2=C([NH]C=C2CCC3=CC=C(C=C3)C(=O)N[C@@H](CCC(O)=O)C(O)=O)N1 | 98.3% | 105% | 103% | 107% | 99.7% | 107% | 91.9% | 100% | 83.2% | 73.9% | 69.8% | 118% | 103% | 107% | 115% | 114% | 110% | 80.2% | 45.7% | 39.4% | 38.3% | 35.8% | 98.8% | 95% | 100% | 97.3% | 97% | 107% | 109% | 52.2% | 36.2% | 32.3% | 23.3% |
| CCN(CCO)CCCC(C)Nc1ccnc2cc(Cl)ccc12 (configuration not stated) | 105% | 102% | 117% | 93% | 102% | 108% | 6.8% | 78.2% | 104% | 64.8% | 42.5% | 102% | 93.8% | 114% | 76.2% | 105% | 118% | 5.95% | 95% | 106% | 62.6% | 49.9% | 98.4% | 80.5% | 104% | 82.5% | 107% | 99.6% | 5.67% | 66% | 100% | 52.1% | 37.2% |
